The target of one test is c-kit kinase (Homo sapiens (Human), UniProt P10721). The test is described as follows: c-Kit biochemical assay (AlphaScreen). The settings on record: c-kit biochemical inhibitory activity. The protocol:
Assays for biochemical cell-based activity of c-kit kinase are known in the art, for example, as described in U.S. Pat. Nos. 7,498,342 and 7,846,941, the disclosures of which are hereby incorporated by reference as it relates to such assays. The c-kit (or kinase domain thereof) is an active kinase in AlphaScreen. IC50 values are determined with respect to inhibition of c-Kit kinase activity, where inhibition of phosphorylation of a peptide substrate is measured as a function of compound concentration. Compounds to be tested were dissolved in DMSO to a concentration of 20 mM. These were diluted 30 μl into 120 μl of DMSO (4 mM) and 1 μl was added to an assay plate. These were then serially diluted 1:3 (50 μl to 100 μl DMSO) for a total of 8 points. Plates were prepared such that each kinase reaction is 20 μl in 1× kinase buffer (50 mM HEPES, pH 7.2, 5 mM MgCl2, 5 mM MnCl2, 0.01% NP-40, 0.2% BSA), 5% DMSO and 10 µM ATP. Substrate was 100 nM biotin-(E4Y)3 (Open Source Biotech, Inc.). C-kit kinase was at 0.1 ng per sample. After incubation of the kinase reaction for 1 hour at room temperature, 5 μl of donor beads (Streptavidin coated beads (Perkin Elmer Life Science) final concentration 1 μg/ml) in stop buffer (50 mM EDTA in 1× kinase buffer) was added, the sample was mixed and incubated for 20 minutes at room temperature before adding 5 μl of acceptor beads (PY20 coated beads (Perkin Elmer Life Science) final concentration 1 μg/ml) in stop buffer. The samples were incubated for 60 minutes at room temperature and the signal per well was read on AlphaQuest reader. Phosphorylated substrate results in binding of the PY20 antibody and association of the donor and acceptor beads such that signal correlates with kinase activity. The signal vs. compound concentration was used to determine the IC50.
Compounds were also tested using a similar assay with a 10-fold higher ATP concentration. For these samples, compounds to be tested were dissolved in DMSO to a concentration of 20 mM. These were diluted 30 μl into 120 μl of DMSO (4 mM) and 1 μl was added to an assay plate. These were then serially diluted 1:3 (50 μl to 100 μl DMSO) for a total of 8 points. Plates were prepared such that each kinase reaction is 20 μl in 1× kinase buffer (25 mM HEPES, pH 7.5, 2 mM MgCl2, 2 mM MnCl2, 0.01% Tween-20, 1 mM DTT, and 0.001% BSA), 5% DMSO and 100 µM ATP. Substrate was 30 nM biotin-(E4Y)10 (Upstate Biotech, Cat#12-440). C-kit kinase was at 1 ng per sample. After incubation of the kinase reaction for 1 hour at room temperature, 5 μl of donor beads (Streptavidin coated beads (Perkin Elmer Life Science) final concentration 10 μg/ml) in stop buffer (25 mM HEPES pH 7.5, 100 mM EDTA, 0.3% BSA) was added, the sample was mixed and incubated for 20 minutes at room temperature before adding 5 μl of acceptor beads (PY20 coated beads (Perkin Elmer Life Science) final concentration 10 μg/ml) in stop buffer. The samples were incubated for 60 minutes at room temperature and the signal per well was read on AlphaQuest or Envision reader (Perkin Elmer Life Science). Phosphorylated substrate results in binding of the PY20 antibody and association of the donor and acceptor beads such that signal correlates with kinase activity. The signal vs. compound concentration was used to determine the IC50.
The c-kit enzyme used in the above assay was either obtained from Cell Signaling Technology (Cat. #7754) or was prepared as follows: A plasmid encoding kit (DNA and encoded protein sequences shown below) was engineered using common polymerase chain reaction (PCR) methods. Complementary DNA cloned from various human tissues were purchased from Invitrogen, and these were used as substrates in the PCR reactions. Specific custom synthetic oligonucleotide primers were designed to initiate the PCR product, and also to provide the appropriate restriction enzyme cleavage sites for ligation with the plasmids. […]

A further test concerns the target c-kit mutant D816V (Homo sapiens (Human), UniProt P10721, D816V/DEL694-753). The test can be described thus: c-Kit mutant D816V biochemical assay (AlphaScreen). The settings on record: c-kit D816V biochemical inhibitory activity. The protocol:
The c-kit mutant D816V (or kinase domain thereof) is an active kinase in AlphaScreen. IC50 values are determined with respect to inhibition of c-Kit mutant D816V kinase activity, where inhibition of phosphorylation of a peptide substrate is measured as a function of compound concentration. Compounds to be tested were dissolved in DMSO to a concentration of 20 mM. These were diluted 30 μl into 120 μl of DMSO (4 mM) and 1 μl was added to an assay plate. These were then serially diluted 1:3 (50 μl to 100 μl DMSO) for a total of 8 points. Plates were prepared such that each kinase reaction is 20 μl in 1× kinase buffer (25 mM HEPES, pH 7.2, 8 mM MgCl2, 2 mM MnCl2, 50 mM NaCl, 0.01% Brij, 1 mM DTT, 0.01% BSA), 5% DMSO and 10 μM ATP. Substrate was 30 nM biotin-(E4Y)10 (EMD Millipore, Cat#12-440). C-kit mutant D816V kinase was at 0.75 ng per sample. After incubation of the kinase reaction for 30 minutes at room temperature, 5 μl of donor beads (Streptavidin coated beads (Perkin Elmer Life Science) final concentration 7.5 μg/ml) in stop buffer (25 mM Hepes pH 7.5, 100 mM EDTA, 0.01% BSA) was added, the sample was mixed and incubated for 20 minutes at room temperature before adding 5 μl of acceptor beads (PY20 coated beads (Perkin Elmer Life Science) final concentration 7.5 ug/ml) in stop buffer. The samples were incubated for 60 minutes at room temperature and the signal per well was read on EnVision reader. Phosphorylated substrate results in binding of the PY20 antibody and association of the donor and acceptor beads such that signal correlates with kinase activity. The signal vs. compound concentration was used to determine the IC50.
Recombinant c-kit mutant D816V (residues 551-934, kinase insertion domain residues 694-753 deleted) with a 6x-histidine N-terminal tag was expressed in E. coli Arctic Express (DE3) RIL (Stratagene). Cells were grown in Terrific Broth (TB) media to an OD600 of 0.6 at 37° C. at which temperature was reduced to 10° C., protein was induced with 1.0 mM IPTG for 18 hours and harvested by centrifugation at 8000×g for 20 minutes. Cells were re-suspended in 0.1M KPO4 pH 8.0, 250 mM NaCl, 10% Glycerol, 0.75% NP-40, 25 mM Imidazole, 5 mM BME with 0.2 mg/ml Lysosyme, 2.0 mM PMSF, 25 μg/ml DNAse I, incubated in ice for 30 minutes and lyzed with a cell disruptor (MicroFluidics). The lysate was clarified by centrifugation at 20,000×g for 2 hours. The protein was captured with Talon resin (Clontech). Contaminating proteins were washed off with 25 mM Tris-HCl pH 8.3, 250 mM NaCl, 15% Glycerol, 1% Triton X-100, and protein eluted using 100 mM EDTA. The protein was further purified using Gel Filtration column 26/600 Superdex 200 (GE) in 50 mM Tris-HCl, pH 8.0, 250 mM NaCl, 15% Glycerol, 5 mM BME. The protein was aliquoted and flash-frozen in liquid Nitrogen.
On the technique in general: Bead proximity is the source of the signal in Alpha formats.

The subject of test [1] is BaF3-FL KIT D816V or BaF3-FL KIT V560G/D816V cell line. The test is described as follows: Cell-based assays of c-Kit mutant kinase activity (cell growth, ATPlite). The settings on record: at least one of the c-kit cell assays of Example 26. Summed up:
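IC50 derived from ATP-content luminescence (ATPlite) after three-day compound exposure at 37° C., 5% CO2. Cells: BaF3 rendered growth-dependent on full-length human KIT D816V or V560G/D816V, 1×10^4 per well, RPMI plus 10% FBS; 8 points, 1:3 steps, maximum 10 μM final, 0.2% DMSO.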
Background: In ATP-based viability assays light output follows the ATP content of the culture.

Consider 5 molecules from patent US10301280B2 (Plexxikon Inc., priority 2012, dated 2019).

SMILES strings stand for the structures.

Chain of c-kit kinase (P10721 26-976): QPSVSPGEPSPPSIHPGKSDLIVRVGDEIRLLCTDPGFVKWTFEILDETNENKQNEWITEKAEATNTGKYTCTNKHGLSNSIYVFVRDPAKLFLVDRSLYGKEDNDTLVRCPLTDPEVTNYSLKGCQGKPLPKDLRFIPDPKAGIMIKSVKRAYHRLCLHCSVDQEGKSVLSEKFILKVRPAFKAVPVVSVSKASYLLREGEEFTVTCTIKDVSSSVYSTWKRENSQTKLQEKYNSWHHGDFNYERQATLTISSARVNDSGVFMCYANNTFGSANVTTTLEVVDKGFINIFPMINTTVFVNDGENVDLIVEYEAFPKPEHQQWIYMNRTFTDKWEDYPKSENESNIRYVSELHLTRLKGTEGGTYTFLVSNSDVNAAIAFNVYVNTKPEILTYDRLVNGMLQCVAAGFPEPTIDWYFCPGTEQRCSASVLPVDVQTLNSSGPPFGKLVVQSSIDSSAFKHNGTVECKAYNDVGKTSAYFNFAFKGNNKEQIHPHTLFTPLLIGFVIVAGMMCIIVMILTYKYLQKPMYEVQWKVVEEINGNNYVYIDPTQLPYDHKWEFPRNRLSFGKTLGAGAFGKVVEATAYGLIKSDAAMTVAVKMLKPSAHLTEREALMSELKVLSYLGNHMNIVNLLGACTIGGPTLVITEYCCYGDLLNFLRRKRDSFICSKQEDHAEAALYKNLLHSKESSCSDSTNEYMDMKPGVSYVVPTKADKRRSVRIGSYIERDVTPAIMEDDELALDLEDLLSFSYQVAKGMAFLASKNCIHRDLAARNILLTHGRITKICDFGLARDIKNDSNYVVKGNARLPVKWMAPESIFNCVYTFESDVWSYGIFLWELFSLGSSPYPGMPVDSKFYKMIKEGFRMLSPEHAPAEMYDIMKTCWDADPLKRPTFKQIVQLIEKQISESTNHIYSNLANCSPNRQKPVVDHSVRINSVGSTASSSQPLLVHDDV
Chain of c-kit mutant D816V (P10721 other isoform, or with tags, fused parts or gaps D816V/del 694-753): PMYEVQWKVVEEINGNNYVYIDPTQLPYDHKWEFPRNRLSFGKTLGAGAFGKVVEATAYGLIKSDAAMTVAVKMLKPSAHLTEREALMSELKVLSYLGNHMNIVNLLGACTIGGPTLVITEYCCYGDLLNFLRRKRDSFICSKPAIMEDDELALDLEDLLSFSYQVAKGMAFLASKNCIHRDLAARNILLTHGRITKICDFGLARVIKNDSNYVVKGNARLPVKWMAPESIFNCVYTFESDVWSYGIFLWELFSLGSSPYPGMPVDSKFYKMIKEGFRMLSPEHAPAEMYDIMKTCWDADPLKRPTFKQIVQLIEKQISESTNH

Consider `O=C(Nc1cnc2[nH]c(-c3ccccc3)cc2c1)c1n[nH]c2ccc(F)cc12` [P-2010, 5-fluoro-N-(2-phenyl-1H-pyrrolo[2,3-b]pyridin-5-yl)-1H-indazole-3-carboxamide], for which the IC50 against c-kit kinase and against c-kit mutant D816V was 10 to 200 µM throughout.

For the molecule `O=S(=O)(Nc1cnc2[nH]c(-c3ccccc3)cc2c1)c1cn[nH]c1` [P-2018], the IC50 against c-kit kinase and against c-kit mutant D816V was 10 to 200 µM throughout.

Regarding `NC(=O)c1cccc(C(=O)Nc2cnc3[nH]c(-c4ccc(F)cc4)cc3c2)c1` [P-2020, N3-[2-(4-fluorophenyl)-1H-pyrrolo[2,3-b]pyridin-5-yl]benzene-1,3-dicarboxamide], the IC50 (in general, the concentration at which inhibition is half-maximal) in test [1] was less than 10 µM; at c-kit kinase, 1 to 10 µM.

In the case of `Cc1n[nH]c(C(=O)Nc2cnc3[nH]c(-c4ccc(F)c(C)c4C)cc3c2)c1C` [P-2279, N-[2-(4-fluoro-2,3-dimethyl-phenyl)-1H-pyrrolo[2,3-b]pyridin-5-yl]-3,4-dimethyl-1H-pyrazole-5-carboxamide], the IC50 in test [1] is less than 10 µM; against c-kit kinase, 10 to 200 µM.

As for `Cc1cc2cc(NC(=O)c3cccc4n[nH]cc34)cnc2[nH]1` [P-2301, N-(2-methyl-1H-pyrrolo[2,3-b]pyridin-5-yl)-2H-indazole-4-carboxamide], the IC50 was less than 10 µM in test [1] and 10 to 200 µM at c-kit kinase.
